Tested on: Cyp1a1 mRNA in PBLs
Assay: Cyp1a1 gene expression in peripheral blood lymphocytes
Type: in vivo, female C57BL/6 mice
Conditions: for BMR20TCDD PBLs Cyp1a1 mRNA: 3 days after single oral dose; for REP PBLs Cyp1a1 mRNA: relative to TCDD
Protocol: Animals. Eight-week-old female C57BL/6 mice (Harlan laboratories, Venray, the Netherlands) were randomly assigned to treatment groups (six animals per group) and allowed to acclimate for 1.5 weeks. The animals were housed in groups in standard cages and conditions (23 ± 2°C, 50–60% relative humidity, 12-hr dark/light cycle) with free access to food and water. Mice received a single dose of test compound by oral gavage at a dosing volume of 10 mL/kg body weight (BW). Mice treated with corn oil vehicle (10 mL/kg BW) served as controls. For each congener, five different doses were administered, ranging from 0.5–100 μg/kg BW (TCDD) to 5,000–500,000 µg/kg BW (PCB-153). Detailed information on doses is provided in Supplemental Material, Table S1 (http://dx.doi.org/10.1289/ehp.1206336). On day 3 after dosing, animals were euthanized by CO2/O2 asphyxiation, and blood was immediately collected from the abdominal aorta. The liver, thymus, spleen, and adipose tissue were removed, weighed (liver, thymus, and spleen), snap frozen, and stored at –80°C. All animal treatments were performed with permission of the Animal Ethical Committee (DEC Utrecht) and performed according to the [Law on Animal Experiments (1977)]. Animals were treated humanely and with regard for alleviation of suffering.
Plasma and PBL isolation. Blood from two mice was pooled (total volume of approximately 1.4 mL); plasma and PBLs were then isolated using Ficoll Paque gradient (GE Healthcare Europe, Diegem, Belgium). Plasma samples were stored at –80°C until compound analysis. Isolated lymphocytes were lysed with RLT buffer (QIAGEN, Venlo, the Netherlands) as described in the QIAGEN RNAeasy kit protocol and stored at –80°C until use.
RNA isolation and quantitative real-time polymerase chain reaction (PCR). Total RNA was isolated from liver and PBLs using a QIAGEN RNeasy kit (QIAGEN). Purity and concentration of the isolated RNA was determined by measuring the absorbance ratio at 260/280 nm and 230/260 nm with a Nanodrop 2000 spectrophotometer (Thermo Scientific, Asheville, NC, USA). RNA was reverse transcribed to complementary DNA (cDNA) using the iScript cDNA synthesis Kit (Bio-Rad, Veenendaal, the Netherlands). Quantitative real-time PCR analyses were performed using the iQ Real-Time PCR Detection System with SYBR green (Bio-Rad). Amplification reactions were set up with […] containing 12.5 μL iQ SYBR Green Supermix (Bio-rad), 0.5 μL distilled H2O, 1 μL (10 μM) forward primer, 1 μL (10 μM) reverse primer, and 10 μL first strand cDNA (10X diluted). Primer sequences were as follows: Cyp1a1: forward-5´-GGTTAACCATGACCGGGAACT-3´ and reverse-5´-TGCCCAAACCAAAGAGAGTGA-3´ ([Schulz et al. 2012]); Cyp1a2: forward-5´-ACATTCCCAAGGAGCGCTGTATCT-3´ and reverse-5´-GTCGATGGCCGAGTTGTTATTGGT-3´ ([Flaveny et al. 2010]); Cyp1b1: forward-5´-GTGGCTGCTCATCCTCTTTACC-3´ and reverse-5´-CCCACAACCTGGTCCAACTC-3´ ([Berge et al. 2004]); β-actin: forward-5´-ATGCTCCCCGGGCTGTAT-3´ and reverse-5´-CATAGGAGTCCTTCTGACCCATTC-3´ ([Schulz et al. 2012]). All primers were run through the National Center for Biotechnology Information Primer-BLAST database (http://www.ncbi.nlm.nih.gov/tools/primer-blast/) to confirm specificity and validate for optimal annealing temperature (60°C for all primers) and efficiency. […] The following program was used for denaturation and amplification of cDNA: 3 min at 95°C, followed by 40 cycles of 15 sec at 95°C and 45 sec at 60°C. Gene expression for each sample was expressed as threshold cycle (Ct), normalized to the reference gene β-actin (ΔCt). We calculated fold induction relative to the control group.
Data analysis. We obtained concentration–response curves using a sigmoidal dose–response nonlinear regression curve fit with variable slope (GraphPad Prism 6.01; GraphPad Software Inc., San Diego, CA, USA): […]

[1] = dose metric Adm dose (µg/kg BW)
[2] = dose metric Syst plasma (ng/g lipid)

Row | SMILES | BMR20TCDD PBLs Cyp1a1 mRNA (dose metric Adm dose) | BMR20TCDD PBLs Cyp1a1 mRNA (dose metric Syst plasma) | REP PBLs Cyp1a1 mRNA [1] | REP PBLs Cyp1a1 mRNA [2]
1 | Clc1ccc(-c2cc(Cl)c(Cl)c(Cl)c2)cc1Cl [PCB-126, 3,3´,4,4´,5-pentachlorobiphenyl] | 603 µg/kg BW | 847 ng/g lipid | 0.04 | 0.06
2 | Clc1ccc(-c2cc(Cl)c(Cl)c(Cl)c2Cl)cc1Cl [PCB-156, 2,3,3´,4,4´,5-hexachlorobiphenyl] | 747,734 µg/kg BW | 2,359,081 ng/g lipid | 0.00003 | 0.00002
3 | Clc1cc2c(cc1Cl)Oc1c(cc(Cl)c(Cl)c1Cl)O2 [PeCDD, 1,2,3,7,8-pentachlorodibenzodioxin] | 33.7 µg/kg BW | 34.0 ng/g lipid | 0.7 | 1.5
4 | Clc1cc2c(cc1Cl)Oc1cc(Cl)c(Cl)cc1O2 [TCDD, 2,3,7,8-tetrachlorodibenzodioxin, reference compound] | 22.4 µg/kg BW | 50.6 ng/g lipid | 1 | 1
